We go through 10 compounds from patent US7084163B2, “Heterocyclic carboxamides and their use as fungicides” (Bayer Cropscience S.A., priority 2001, dated 2006).

The structures appear in SMILES notation. A value given as a limit tells only on which side of the number the result lay.

The subject of test [1] is Erisyphe graminis f. sp. tritici. Put plainly: In vivo test on Erisyphe graminis f. sp. tritici (powdery mildew of wheat), preventive spray. As to conditions: Triticum aestivum; dose of 500 g/ha; wheat plants (Audace variety); contaminated 24 hours after treatment; grading 7 to 14 days after contamination vs control plants; read-out: good (at least 50%) or total protection. The method, then:
An aqueous suspension, at a concentration of 1.5%, of the active material tested is obtained by grinding it finely in a formulation of concentrated suspension type. This aqueous suspension is then diluted in water so as to obtain the desired active material concentration. Wheat plants (Audace variety) in starter cups, sown on 50/50 peat soil-pozzulana substrate and grown at 12° C., are treated at the 1-leaf stage (10 cm tall) by spraying with the aqueous suspension described above. Plants, used as controls, are treated with an aqueous solution not containing the active material. After 24 hours, the plants are contaminated by dusting them with Erisyphe graminis f. sp. tritici spores, the dusting being carried out using diseased plants.

For test [2], the system named is Puccinia recondita. The test can be described thus: In vivo test on Puccinia recondita (wheat brown rust), preventive spray. Conditions: 240 h, dose of 500 g/ha, wheat plants (Scipion variety), contaminated 24 hours after treatment, grading 10 days after contamination vs control plants, read-out: good (at least 50%) protection. The method, then: An aqueous suspension, at a concentration of 1.5%, of the active material tested is obtained by grinding it finely in a formulation of concentrated suspension type, This aqueous suspension is then diluted in water so as to obtain the desired active material concentration. Wheat plants (Scipion variety) in starter cups, sown on a 50/50 peat soil-pozzolana substrate and grown at 12° C., are treated at the 1-leaf stage (10 cm tall) by spraying with the aqueous suspension described above. Plants, used as controls, are treated with an aqueous solution not containing the active material.
After 24 hours, the plants are contaminated by spraying them with an aqueous suspension of Puccinia recondita spores (150,000 spores per mL). The contaminated wheat plants are incubated for 24 hours at about 20° C. and at 100% relative humidity, and then for 10 days at 70% relative humidity.
Grading is carried out 10 days after the contamination, in comparison with the control plants. Under these conditions, good (at least 50%) protection is observed, at a dose of 500 g/ha, with the following compounds described as example: 6, 10, 11, 12, 13, 14, 15, 28, 29, 30, 31, 34, 37, 42, 45, 46, 50, 51, 52, 62, 72.

Test [3] deals with Septoria tritici. Put plainly: In vivo test on Septoria tritici (leaf spot of wheat), preventive spray. As to conditions: Zymoseptoria tritici; dose of 500 g/ha; wheat plants (Scipion variety); contaminated 24 hours after treatment; grading 15 to 20 days after contamination vs control plants; read-out: good (at least 50%) protection. The method, then: An aqueous suspension, at a concentration of 1.5%, of the active material tested is obtained by grinding it finely in a formulation of concentrated suspension type. This aqueous suspension is then diluted in water so as to obtain the desired active material concentration. Wheat plants (Scipion variety) in starter cups, sown on a 50/50 peat soil-pozzolana substrate and grown at 12° C., are treated at the 1-leaf stage (10 cm tall) by spraying with the aqueous suspension described above. Plants, used as controls, are treated with an aqueous solution not containing the active material.
After 24 hours, the plants are contaminated by spraying them with an aqueous suspension of Septoria tritici spores (500,000 spores per mL). The spores are collected from a 15-day-old culture and are suspended in a nutrient solution composed of: • 1.5 g/L of gelatine • 0.5 g/L of sodium oleate • 24 g/L of PDB
The contaminated wheat plants are incubated for 72 hours at about 20° C. and at 100% relative humidity, and then for 15 days at 80% relative humidity.

For the compound `C=CCOC(=O)Nc1cn(C)c(C(=O)Nc2ccc(Oc3ccc(C(F)(F)F)cc3)cc2)c1OC` [compound 5, 1-Methyl-4-[(allyloxycarbonyl)amino]-3-methoxy-1H—N-para-[4-(trifluoromethyl)phenoxy]phenyl-pyrrole-2-carboxamide], the pest or weed control at 500 g/ha in test [1] is ≥ 50%. Regarding `CCOC(=O)c1c(OC)c(C(=O)Nc2ccc(Oc3ccc(C(F)(F)F)cc3)cc2)cn1C` [compound 12, 1-methyl-2-ethoxycarbonyl-3-methoxy-1H-N-para-[4-(trifluoromethyl)phenoxy]phenyl-pyrrole-4-carboxamide], the pest or weed control at 500 g/ha in test [1] and in test [2] was ≥ 50% each time. `Nc1nccc(C(=O)Nc2ccc(Oc3ccc(C(F)(F)F)cc3)cc2)c1O` [compound 19, [4-(Trifluoromethyl)phenoxy]anilino-(2-amino-3-hydroxy)pyridyl-4-carboxamide]: the pest or weed control at 500 g/ha in test [1] is ≥ 50%. Take `COC(=O)Nc1noc(C(=O)Nc2ccc(Oc3ccc(C(F)(F)F)cc3)cc2)c1OC` [compound 28]: the pest or weed control at 500 g/ha in test [1] and in test [2] was ≥ 50% throughout. Turning to `COC(=O)c1onc(C(=O)Nc2ccc(Oc3ccc(C(F)(F)F)cc3)cc2)c1OC` [compound 39], the pest or weed control at 500 g/ha in test [3] is ≥ 50%.

As for `Nc1cc(C(=O)Nc2ccc(Oc3ccc(C(F)(F)F)cc3)cc2)ns1` [compound 42, 5-Amino-N-para-[4-(trifluoromethyl)phenoxy]phenyl-isothiazole-3-carboxamide], the pest or weed control at 500 g/ha in test [1], in test [3] and in test [2] was ≥ 50% in each case. As for `Cn1nc(C(=O)Nc2ccc(Oc3cccc(C(F)(F)F)c3)cc2)c(O)c1N` [compound 44, 1-Methyl-4-hydroxy-5-amino-N-para-[3-(trifluoromethyl)phenoxy]phenyl pyrazole-3-carboxamide], the pest or weed control at 500 g/ha in test [1] is ≥ 50%. As for `COc1c(C(N)=O)cncc1C(=O)Nc1ccc(Oc2ccc(C(F)(F)F)c(Cl)c2)cc1` [compound 50, 5-aminocarbonyl-4-methoxy-N-para-[3-chloro-4-(trifluoromethyl)phenoxy]phenyl nicotinamide], the pest or weed control at 500 g/ha in test [3] and in test [2] was ≥ 50% each time.

With `Cc1nc(C)c(-n2cccc2)c(O)c1C(=O)Nc1ccc(OC(F)(F)C(F)F)cc1` [compound 55, 2,6-dimethyl-5-pyrrol-1-yl-4-hydroxy-N-para-(1,1,2,2 tetrafluoroethoxy)phenyl nicotinamide], the pest or weed control at 500 g/ha in test [1] was ≥ 50%. In the case of `CC(C)N1CC(C(=O)Nc2ccc(Oc3ccc(C(F)(F)F)cc3)cc2)=C(O)C1=O` [compound 73, N-(4-(4-Trifluormethyl)phenoxy)phenyl-[(1-isopropyl-4-hydroxy-5-dioxo-2,5-dihydro-1H)-pyrrol]-3-carboxamide], in test [1], the pest or weed control at 500 g/ha is ≥ 50%.
